Data: patent publication US20040096356A1, “Assay device for determining analytes in a liquid dairy product” (priority 1997, published 2004)

Biological target: T1, enzyme R39 (soluble exocellular D-alanyl-D-alanine carboxypeptidase produced by Actinomadura R39) (Actinomadura sp., UniProt P39045)
T1 construct: soluble exocellular D-alanyl-D-alanine carboxypeptidase produced by Actinomadura R39, obtained by the procedure described in J.-M. Frere et al; made in house; host or cells: Actinomadura R39 (natural producer, secreted enzyme)
T1 sequence (P39045 50-515): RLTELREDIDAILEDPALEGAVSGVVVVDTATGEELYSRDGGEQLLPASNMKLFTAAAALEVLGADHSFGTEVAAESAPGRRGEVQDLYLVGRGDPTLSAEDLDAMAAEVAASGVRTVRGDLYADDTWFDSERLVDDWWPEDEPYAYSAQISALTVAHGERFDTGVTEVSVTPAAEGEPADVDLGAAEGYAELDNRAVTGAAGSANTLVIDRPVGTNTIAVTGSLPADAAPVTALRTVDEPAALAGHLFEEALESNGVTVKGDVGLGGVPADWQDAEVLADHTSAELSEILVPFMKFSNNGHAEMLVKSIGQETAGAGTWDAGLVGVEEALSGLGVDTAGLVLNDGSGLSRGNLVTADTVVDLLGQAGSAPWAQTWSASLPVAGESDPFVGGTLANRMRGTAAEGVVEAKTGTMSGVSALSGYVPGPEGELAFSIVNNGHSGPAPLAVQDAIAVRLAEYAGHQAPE
Test: Test 2, sensitive test (7 minutes): strip test for β-lactam antibiotics in milk using enzyme R39
Type: binding
Conditions: for Intensity 1st band: scale 0 to 10, reference band 6, 47° C., 5 min incubation + 2 min migration
Method: The identifier used in this example is soluble exocellular D-alanyl-D-alanine carboxypeptidase produced by Actinomadura R39, obtained by the procedure described in J.-M. Frere et al., Antimicrobial Agents and Chemotherapy, 18(4), 506-510 (1980).
250 μl of an aqueous solution of enzyme R39 having a concentration of 1 mg/ml are dialysed for 24 hours against 500 ml of HNM buffer (Hepes 10 mM, pH 8, NaCl 10 mM, MgCl2 5 mM). To this dialysed solution of enzyme R39 are then added 2 ml of bicarbonate buffer (0.1 M sodium bicarbonate, pH 9) and 250 μl of a solution of N-hydroxysuccinimide 6-(biotinamido)caproic ester having a concentration of 5 mg/ml in anhydrous DMF. This solution is stirred gently in the LABINCO stirrer for tubes on a rotary axis (available from VEL, Belgium) at a rate of 2 revolutions/minute for 3 hours at room temperature and away from light. The solution thus obtained is dialysed against the HNM buffer ([…]) for 24 hours. In this way a solution of biotinylated enzyme R39 is obtained which is diluted in HNM-BSA buffer (Hepes 500 mM; pH 8, NaCl 500 mM, MgCl2 250 mM, BSA 10 mg/ml) to a concentration of 100 μg of enzyme R39 per ml of buffer. This solution is stored at −20° C.
As the marker use is made of particles of gold having a diameter of 40 nm on which a goat anti-biotin antibody has been deposited in the form of suspensions in a 2 mM aqueous sodium tetraborate solution, with a pH of 7.2, stabilized by 0.1% of sodium azide (available from British Biocell (Ref. GAB40)). The optical density of these suspensions at 520 nm is approximately 10 and the protein concentration is approximately 24 μg/ml.
The biotinylated enzyme R39 solution prepared in Example 2.2.1 is diluted 50 times with the HNM-BSA buffer (Hepes 500 mM, pH 8, NaCl 500 mM, MgCl2 250 mM, BSA 10 mg/ml). At room temperature, 17.5 parts by volume of this dilute biotinylated enzyme R39 solution, 9.27 parts by volume of the gold particle suspension used to label the enzyme R39 and 6 parts by volume of reference gold particle suspension are mixed (see Example 2.3).
The first capture substance makes it possible to fix the identifiers coupled with the free markers present in excess relative to the quantity of antibiotic present in the sample.
Assay devices containing membranes (2), (3) and (4) are used, assembled in accordance with the procedure described in Example 1.1. The membrane (3) of these devices carries on the proximal side the capture substance described in Example 2.4.1. and on the distal side the capture substance described in Example 2.4.2. The capture substances were deposited in accordance with the procedure described in Example 1.2.
Six samples of milk are prepared, containing 0; 2; 2.5; 3; 4 and 5 ppb, respectively, of penicillin G. Each of these solutions is then analysed as follows.
An aliquot is taken of 200 μl of milk sample and 32.8 μl of solution B prepared in Example 2.2.3, and is placed in an Eppendorf tube. This mixture is incubated at 47° C. for 5 minutes. An assay device is then placed vertically in the Eppendorf tube such that the first end of the assay device is in contact with the mixture. The mixture is allowed to migrate over the assay device while the assembly is incubated at 47° C. for 2 minutes.
An intensity value ranging from 0 to 10 is awarded to the bands detected, the value 10 being given to the most intense band and the value 0 being given to the least intense band. On this scale, a value 6 is awarded to the reference band. The intensity of the signal observed in the first detection band is inversely proportional to the quantity of penicillin G present in the sample.
In this example, the test is considered to be positive when the first band has an intensity which is lower than that of the reference band. The results shown in Table 2 indicate that this test makes it possible to detect in 7 minutes down to 2.5 ppb of penicillin G in a milk sample.

CC1(C)S[C@@H]2[C@H](NC(=O)Cc3ccccc3)C(=O)N2[C@H]1C(=O)O [Penicillin G, penicillin G]
Intensity 1st band (2 ppb penicillin G in milk): 7 | Intensity 1st band (2.5 ppb penicillin G in milk): 5 | Intensity 1st band (3 ppb penicillin G in milk): 4 | Intensity 1st band (4 ppb penicillin G in milk): 1 | Intensity 1st band (5 ppb penicillin G in milk): 0 | lowest concentration detected in a milk sample (in 7 minutes, positive when first band is less intense than reference band): 2.5 ppb
